# Values quoted from earlier work as cited in patent US10245273B2, “Oral pharmaceutical products and methods of use combining testosterone esters with hypolipidemic agents” (Clarus Therapeutics, Inc., priority 2013, dated 2019).
structure (smiles),measurement,setting,value
Cc1ccc(C)c(OCCCC(C)(C)C(=O)O)c1 [gemfibrozil],Subjects with a primary event,600 mg twice daily for 5 years (placebo 21.7%),17.3%
same,Reduction in CHD events / relative risk reduction of primary outcome (nonfatal myocardial infarction or death of cardiac origin),"600 mg twice daily, median follow-up 5.1 years, vs placebo",22%
same,Increase in numbers of small HDL particles,in vivo,21%
same,Increase in total HDL particles,in vivo,10%
same,"Relative risk reduction for combined cardiac events (nonfatal MI, death from coronary causes or stroke)",vs placebo,24%
